Among the data in patent US8404692B2, “Pyrimidin-4-yl-3, 4-dihydro-2H-pyrrolo [1,2A] pyrazin-1-one compounds” (Cyclacel Limited, priority 2005, dated 2013) are IC50 values, retold here.

A word on the IC50: it is the concentration needed to halve the response being measured.

Molecules are shown by their SMILES.

The assay concerns the target T1, aurora-A (human) (Homo sapiens, UniProt O14965).
T1 construct: purchased Upstate, Dundee, UK
T1 sequence (O14965 1-403): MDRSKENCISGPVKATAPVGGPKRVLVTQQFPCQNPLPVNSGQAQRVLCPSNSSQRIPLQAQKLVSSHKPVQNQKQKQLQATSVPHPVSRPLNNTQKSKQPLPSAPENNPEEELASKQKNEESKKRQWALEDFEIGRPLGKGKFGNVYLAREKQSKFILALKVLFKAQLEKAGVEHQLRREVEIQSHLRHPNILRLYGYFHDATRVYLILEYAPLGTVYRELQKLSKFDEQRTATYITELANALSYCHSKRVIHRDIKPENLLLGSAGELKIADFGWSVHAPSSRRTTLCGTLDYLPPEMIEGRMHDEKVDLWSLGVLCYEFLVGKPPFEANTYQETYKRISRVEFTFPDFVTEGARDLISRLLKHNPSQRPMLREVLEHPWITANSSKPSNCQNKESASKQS
In words: Aurora-A (human) kinase assay. To be noted: read-out: Activity (Aurora A activity, IC50 grading). The assay is classed as biochemical. Here is the method:
This was achieved by measurement of incorporation of radioactive phosphate from ATP into Kemptide substrate (LRRASLG), upon phosphorylation by commercially obtained aurora-A (human, Upstate; Dundee, UK). Assays were performed using 96-well plates and appropriate assay buffers (20 mM Tris, 25 mM β-glycerophosphate, 5 mM EGTA, 1 mM DTT, 1 mM sodium vanadate, pH 7.5), into which were added 2-5 ng of active enzyme with 500 μM substrate (Kemptide). The reactions were initiated by addition of MATP mix (15 mM MgCl2+100 μM ATP with 15-25 kBq per well of [γ-^32P]-ATP) and mixtures incubated for 30 min at 30° C. Reactions were stopped by addition of an equal volume of 75 mM aq orthophosphoric acid, followed by filtration through p81 filterplates (Whatman Polyfiltronics, Kent, UK). After washing 4 times with 75 mM aq orthophosphoric acid, plates were dried, scintillant added and incorporated radioactivity measured in a scintillation counter (TopCount, Packard Instruments, Pangbourne, Berks, UK). Compounds for kinase assay were made up as 10 mM stocks in DMSO and diluted into 10% DMSO in assay buffer. Data was analysed using curve-fitting software (XLfit version 4.0.2, IDBS, Guildford, Surrey, UK) to determine IC50 values (concentration of test compound which inhibits kinase activity by 50%).
Turning to `Cc1c(-c2ccnc(Nc3cccc(-c4cncnc4)c3)n2)c(C)n2c1C(=O)NCC2` [Example I-53, 6,8-Dimethyl-7-[2-(3-pyrimidin-5-yl-phenylamino)-pyrimidin-4-yl]-3,4-dihydro-2H-pyrrolo[1,2-a]pyrazin-1-one], the IC50 is less than 0.1 µM. The value for `Cc1c(-c2ccnc(Nc3ccc(Cc4ccncc4)cc3)n2)c(C)n2c1C(=O)NCC2` [Example I-54, 6,8-Dimethyl-7-[2-(4-pyridin-4-ylmethyl-phenylamino)-pyrimidin-4-yl]-3,4-dihydro-2H-pyrrolo[1,2-a]pyrazin-1-one] was less than 1 µM.

On to `Cc1c(-c2ccnc(Nc3ccc(S(=O)(=O)N4CCCC4)cc3)n2)c(C)n2c1C(=O)NCC2` [Example I-55, 6,8-Dimethyl-7-{2-[4-(pyrrolidine-1-sulfonyl)-phenylamino]-pyrimidin-4-yl}-3,4-dihydro-2H-pyrrolo[1,2-a]pyrazin-1-one], for which the IC50 is less than 1 µM. Turning to `Cc1c(-c2ccnc(Nc3ccc(S(=O)(=O)N4CCCCC4)cc3)n2)c(C)n2c1C(=O)NCC2` [Example I-56, 6,8-Dimethyl-7-{2-[4-(piperidine-1-sulfonyl)-phenylamino]-pyrimidin-4-yl}-dihydro-2H-pyrrolo[1,2-a]pyrazin-1-one], the IC50 is less than 0.1 µM.

With `Cc1c(-c2ccnc(Nc3ccc(OCc4ccccc4)cc3)n2)c(C)n2c1C(=O)NCC2` [Example I-57, 7-[2-(4-Benzyloxy-phenylamino)-pyrimidin-4-yl]-6,8-dimethyl-3,4-dihydro-2H-pyrrolo[1,2-a]pyrazin-1-one], the IC50 was less than 10 µM. `Cc1c(-c2ccnc(Nc3cccc(C(=O)c4ccccc4)c3)n2)c(C)n2c1C(=O)NCC2` [Example I-58, 7-[2-(3-Benzoyl-phenylamino)-pyrimidin-4-yl]-6,8-dimethyl-3,4-dihydro-2H-pyrrolo[1,2-a]pyrazin-1-one]: the IC50 was less than 1 µM. The value for `CC(=O)Nc1cccc(Nc2nccc(-c3c(C)c4n(c3C)CCNC4=O)n2)c1` [Example I-59, N-{3-[4-(6,8-Dimethyl-1-oxo-1,2,3,4-tetrahydro-pyrrolo[1,2-a]pyrazin-7-yl)-pyrimidin-2-ylamino]-phenyl}-acetamide] was less than 0.1 µM; that for `Cc1c(-c2ccnc(Nc3ccc(-c4csnn4)cc3)n2)c(C)n2c1C(=O)NCC2` [Example I-60, 6,8-Dimethyl-7-[2-(4-[1,2,3]thiadiazol-4-yl-phenylamino)-pyrimidin-4-yl]-3,4-dihydro-2H-pyrrolo[1,2-a]pyrazin-1-one] was less than 0.1 µM; that for `Cc1c(-c2ccnc(Nc3ccc(OC(F)(F)F)cc3)n2)c(C)n2c1C(=O)NCC2` [Example I-61, 6,8-Dimethyl-7-[2-(4-trifluoromethoxy-phenylamino)pyrimidin-4-yl]-3,4-dihydro-2H-pyrrolo[1,2-a]pyrazin-1-one] was less than 1 µM. Regarding `Cc1c(-c2ccnc(Nc3ccc4c(c3)OCCCO4)n2)c(C)n2c1C(=O)NCC2` [Example I-62, 7-[2-(3,4-Dihydro-2H-benzo[b][1,4]dioxepin-7-ylamino)-pyrimidin-4-yl]-6,8-dimethyl-3,4-dihydro-2H-pyrrolo[1,2-a]pyrazin-1-one], the IC50 was less than 0.1 µM.

For `Cc1c(-c2ccnc(Nc3ccc4c(c3)CS(=O)(=O)C4)n2)c(C)n2c1C(=O)NCC2` [Example I-63, 7-[2-(2,2-Dioxo-2,3-dihydro-1H-2-benzo[c]thiophen-5-ylamino)-pyrimidin-4-yl]-6,8-dimethyl-3,4-dihydro-2H-pyrrolo[1,2-a]pyrazin-1-one], the IC50 is less than 0.1 µM. On to `Cc1c(-c2ccnc(Nc3ccc(F)c(Cl)c3)n2)c(C)n2c1C(=O)NCC2` [Example I-64, 7-[2-(3-Chloro-4-fluoro-phenylamino)-pyrimidin-4-yl]-6,8-dimethyl-3,4-dihydro-2H-pyrrolo[1,2-a]pyrazin-1-one], for which the half-maximal inhibitory concentration (IC50) is less than 1 µM. Consider `Cc1c(-c2ccnc(Nc3ccccc3F)n2)c(C)n2c1C(=O)NCC2` [Example I-65, 7-[2-(2-Fluoro-phenylamino)-pyrimidin-4-yl]-6,8-dimethyl-3,4-dihydro-2H-pyrrolo[1,2-a]pyrazin-1-one], for which the IC50 is less than 1 µM. Take `Cc1c(-c2ccnc(Nc3ccc(F)cc3F)n2)c(C)n2c1C(=O)NCC2` [Example I-66, 7-[2-(2,4-Difluoro-phenylamino)-pyrimidin-4-yl]-6,8-dimethyl-3,4-dihydro-2H-pyrrolo[1,2-a]pyrazin-1-one]: the IC50 is less than 10 µM.

Turning to `COc1ccc(Nc2nccc(-c3c(C)c4n(c3C)CCNC4=O)n2)cc1Cl` [Example I-67, 7-[2-(3-Chloro-4-methoxy-phenylamino)-pyrimidin-4-yl]-6,8-dimethyl-3,4-dihydro-2H-pyrrolo[1,2-a]pyrazin-1-one], the IC50 is less than 0.1 µM. Next, `Cc1c(-c2ccnc(Nc3ccc(C(F)(F)F)cc3)n2)c(C)n2c1C(=O)NCC2` [Example I-68, 6,8-Dimethyl-7-[2-(4-trifluoromethyl-phenylamino)-pyrimidin-4-yl]-3,4-dihydro-2H-pyrrolo[1,2-a]pyrazin-1-one]: less than 10 µM; `Cc1c(-c2ccnc(Nc3cccc(Cl)c3)n2)c(C)n2c1C(=O)NCC2` [Example I-69, 7-[2-(3-Chloro-phenylamino)-pyrimidin-4-yl]-6,8-dimethyl-3,4-dihydro-2H-pyrrolo[1,2-a]pyrazin-1-one]: less than 1 µM. On to `Cc1c(-c2ccnc(Nc3ccc(CC(=O)O)cc3)n2)c(C)n2c1C(=O)NCC2` [Example I-70, {4-[4-(6,8-dimethyl-1-oxo-1,2,3,4-tetrahydro-pyrrolo[1,2-a]pyrazin-7-yl)-pyrimidin-2-ylamino]-phenyl}-acetic acid], for which the concentration for half-maximal inhibition (IC50) was less than 0.1 µM. The value for `Cc1nc(-c2ccc(Nc3nccc(-c4c(C)c5n(c4C)CCNC5=O)n3)cc2)cs1` [Example I-71, 6,8-Dimethyl-7-{2-[4-(2-methyl-thiazol-4-yl)-phenylamino]-pyrimidin-4-yl}-3,4-dihydro-2H-pyrrolo[1,2-a]pyrazin-1-one] was less than 1 µM; that for `Cc1c(-c2ccnc(Nc3ccc(-n4cccn4)cc3)n2)c(C)n2c1C(=O)NCC2` [Example I-72, 6,8-Dimethyl-7-[2-(4-pyrazol-1-yl-phenylamino)-pyrimidin-4-yl]-3,4-dihydro-2H-pyrrolo[1,2-a]pyrazin-1-one] was less than 1 µM. Next, `Cc1c(-c2ccnc(Nc3ccc(-n4cncn4)cc3)n2)c(C)n2c1C(=O)NCC2` [Example I-73, 6,8-Dimethyl-7-[2-(4-[1,2,4]triazol-1-yl-phenylamino)-pyrimidin-4-yl]-3,4-dihydro-2H-pyrrolo[1,2-a]pyrazin-1-one]: less than 1 µM; `Cc1c(-c2ccnc(Nc3ccc(-n4cccc4)cc3)n2)c(C)n2c1C(=O)NCC2` [Example I-74, 6,8-Dimethyl-7-[2-(4-pyrrol-1-yl-phenylamino)-pyrimidin-4-yl]-3,4-dihydro-2H-pyrrolo[1,2-a]pyrazin-1-one]: less than 1 µM.

Take `Cc1c(-c2ccnc(Nc3ccc(-c4cn5c(n4)SCC5)cc3)n2)c(C)n2c1C(=O)NCC2` [Example I-75, 7-{2-[4-(2,3-Dihydro-imidazo[2,1-b]thiazol-6-yl)-phenylamino]-pyrimidin-4-yl}-6,8-dimethyl-3,4-dihydro-2H-pyrrolo[1,2-a]pyrazin-1-one]: the half-inhibitory concentration (IC50) was less than 0.1 µM. Turning to `CNc1ccc(Nc2nccc(-c3c(C)c4n(c3C)CCNC4=O)n2)cc1OC` [Example I-76, 7-[2-(3-Methoxy-4-methylamino-phenylamino)-pyrimidin-4-yl]-6,8-dimethyl-3,4-dihydro-2H-pyrrolo[1,2-a]pyrazin-1-one], the IC50 was less than 1 µM.

With `Cc1c(-c2ccnc(Nc3ccc(C#N)cc3)n2)c(C)n2c1C(=O)NCC2` [Example I-77, 4-[4-(6,8-Dimethyl-1-oxo-1,2,3,4-tetrahydro-pyrrolo[1,2-a]pyrazin-7-yl)-pyrimidin-2-ylamino]-benzonitrile], the IC50 was less than 1 µM. Consider `Cc1c(-c2ccnc(Nc3ccc(-c4cccnc4)cc3)n2)c(C)n2c1C(=O)NCC2` [Example I-78, 6,8-Dimethyl-7-[2-(4-pyridin-3-yl-phenylamino)-pyrimidin-4-yl]-3,4-dihydro-2H-pyrrolo[1,2-a]pyrazin-1-one], for which the half-maximal inhibitory concentration (IC50) is less than 1 µM. The value for `Cc1c(-c2ccnc(Nc3ccc(-c4nncn4C)cc3)n2)c(C)n2c1C(=O)NCC2` [Example I-79, 6,8-Dimethyl-7-{2-[4-(4-methyl-4H-[1,2,4]triazol-3-yl)-phenylamino]-pyrimidin-4-yl}-3,4-dihydro-2H-pyrrolo[1,2-a]pyrazin-1-one] was less than 1 µM; that for `Cc1cc(C)n(-c2ccc(Nc3nccc(-c4c(C)c5n(c4C)CCNC5=O)n3)cc2)n1` [Example I-80, 7-{2-[4-(3,5-Dimethyl-pyrazol-1-yl)-phenylamino]-pyrimidin-4-yl}-6,8-dimethyl-3,4-dihydro-2H-pyrrolo[1,2-a]pyrazin-1-one] was less than 1 µM.
